# From PubChem BioAssay (NCI)
#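 These data come from cells grown in 96-well plates and exposed to compound for 48 hours at five concentrations. The concentration for 50% growth inhibition is given as GI50. TGI: total growth inhibition.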
# How the values were obtained:
# Assay in all cases: NCI tumour cell line growth inhibition, 48 h
# [1] = test system: T-47D breast
# [2] = test system: MCF7 breast
# [3] = test system: NCI-H226 lung
# [4] = test system: MDA-MB-231 breast
# [5] = test system: TK-10 renal
# [6] = test system: NCI/ADR-RES ovarian
# [7] = test system: A549 NSCLC
# [8] = test system: HCT-15 colon
# [9] = test system: HL-60(TB) leukemia
# [10] = test system: SNB-75 CNS
# [11] = test system: SK-MEL-28 melanoma
# [12] = test system: OVCAR-4 ovarian
# [13] = test system: SK-MEL-2 melanoma
# [14] = test system: MALME-3M melanoma
# [15] = test system: SK-MEL-5 melanoma
# [16] = test system: UACC-257 melanoma
# [17] = test system: MOLT-4 leukemia
# [18] = test system: IGROV1 ovarian
# [19] = test system: NCI-H23 lung
# [20] = test system: NCI-H522 lung
# [21] = test system: K-562 leukemia
# [22] = test system: HCT-116 colon
# [23] = test system: HOP-92 NSCLC
# [24] = test system: RXF 393 renal
# [25] = test system: SF-268 CNS
# [26] = test system: KM12 colon
# [27] = test system: CAKI-1 renal
# [28] = test system: CCRF-CEM leukemia
# [29] = test system: ACHN renal
# [30] = test system: SNB-19 CNS
# [31] = test system: SF-295 CNS
# [32] = test system: OVCAR-3 ovarian
# [33] = test system: UACC-62 melanoma
# [34] = test system: SW-620 colon
# [35] = test system: HS 578T breast
# [36] = test system: MDA-MB-468 breast
# [37] = test system: UO-31 renal
# [38] = test system: PC-3 prostate
# [39] = test system: HCC-2998 colon
# [40] = test system: A498 renal
# [41] = test system: LOX IMVI melanoma
# [42] = test system: NCI-H460 lung
# [43] = test system: SN12C renal
# [44] = test system: HOP-62 NSCLC
# [45] = test system: SK-OV-3 ovarian
# [46] = test system: SR leukemia
# [47] = test system: U251 CNS
# [48] = test system: 786-0 renal
# [49] = test system: BT-549 breast
# [50] = test system: EKVX NSCLC
# [51] = test system: SF-539 CNS
# [52] = test system: M14 melanoma
# [53] = test system: OVCAR-5 ovarian
# [54] = test system: DU-145 prostate
# [55] = test system: MDA-MB-435
# [56] = test system: COLO 205 colon
# [57] = test system: HT29 colon
# [58] = test system: OVCAR-8 ovarian
# [59] = test system: RPMI-8226 leukemia
compound,measurement,setting,value
N#Cc1ccc(-c2nn(-c3ccc(C(=O)O)cc3)cc2CNc2cc(Cl)cc(C(F)(F)F)c2)cc1,GI50,[1],3.8 µM
same,TGI,[1],> 100 µM
same,GI50,[2],5.16 µM
same,TGI,[2],26 µM
same,GI50,[3],10.9 µM
same,TGI,[3],30.6 µM
same,GI50,[4],12.3 µM
same,TGI,[4],37 µM
same,GI50,[5],17.2 µM
same,TGI,[5],> 100 µM
same,GI50,[6],7.45 µM
same,TGI,[6],26.8 µM
same,GI50,[7],7.98 µM
same,TGI,[7],32.1 µM
same,GI50,[8],3.93 µM
same,TGI,[8],15.8 µM
same,GI50,[9],6.31 µM
same,TGI,[9],31.8 µM
same,GI50,[10],15.5 µM
same,TGI,[10],45.6 µM
same,GI50,[11],4.6 µM
same,TGI,[11],28.3 µM
same,GI50,[12],7 µM
same,TGI,[12],> 100 µM
same,GI50,[13],2.96 µM
same,TGI,[13],9.48 µM
same,GI50,[14],6.44 µM
same,TGI,[14],31.9 µM
same,GI50,[15],3.41 µM
same,TGI,[15],13.5 µM
same,GI50,[16],7.02 µM
same,TGI,[16],40.2 µM
same,GI50,[17],4.26 µM
same,TGI,[17],22.9 µM
same,GI50,[18],10.8 µM
same,TGI,[18],29.3 µM
same,GI50,[19],5.19 µM
same,TGI,[19],19.4 µM
same,GI50,[20],3.18 µM
same,TGI,[20],12.1 µM
same,GI50,[21],3.71 µM
same,TGI,[21],> 100 µM
same,GI50,[22],4.46 µM
same,TGI,[22],17.1 µM
same,GI50,[23],3.48 µM
same,TGI,[23],15 µM
same,GI50,[24],10.3 µM
same,TGI,[24],24.7 µM
same,GI50,[25],14.3 µM
same,TGI,[25],67 µM
same,GI50,[26],5.71 µM
same,TGI,[26],19.3 µM
same,GI50,[27],10.2 µM
same,TGI,[27],45.2 µM
same,GI50,[28],4.2 µM
same,TGI,[28],20.8 µM
same,GI50,[29],6.42 µM
same,TGI,[29],52.7 µM
same,GI50,[30],7.61 µM
same,TGI,[30],33.7 µM
same,GI50,[31],4.79 µM
same,TGI,[31],22.9 µM
same,GI50,[32],4.98 µM
same,TGI,[32],18.6 µM
same,GI50,[33],3.64 µM
same,TGI,[33],14.4 µM
same,GI50,[34],9.22 µM
same,TGI,[34],25 µM
same,GI50,[35],7.95 µM
same,TGI,[35],36.1 µM
same,GI50,[36],6.83 µM
same,TGI,[36],38.8 µM
same,GI50,[37],4.34 µM
same,TGI,[37],22 µM
same,GI50,[38],7 µM
same,TGI,[38],35.1 µM
same,GI50,[39],6.46 µM
same,TGI,[39],19.8 µM
same,GI50,[40],15.8 µM
same,TGI,[40],41 µM
same,GI50,[41],5.95 µM
same,TGI,[41],20.3 µM
same,GI50,[42],6.67 µM
same,TGI,[42],21 µM
same,GI50,[43],6.89 µM
same,TGI,[43],33 µM
same,GI50,[44],11.7 µM
same,TGI,[44],28.3 µM
same,GI50,[45],15.1 µM
same,TGI,[45],37.9 µM
same,GI50,[46],3.77 µM
same,TGI,[46],> 100 µM
same,GI50,[47],7.26 µM
same,TGI,[47],32.6 µM
same,GI50,[48],14.1 µM
same,TGI,[48],32 µM
same,GI50,[49],11.3 µM
same,TGI,[49],31.1 µM
same,GI50,[50],5.47 µM
same,TGI,[50],30.8 µM
same,GI50,[51],11.4 µM
same,TGI,[51],24 µM
same,GI50,[52],10.1 µM
same,TGI,[52],35.1 µM
same,GI50,[53],18.5 µM
same,TGI,[53],36 µM
same,GI50,[54],11.9 µM
same,TGI,[54],> 100 µM
same,GI50,[55],7.05 µM
same,TGI,[55],56.4 µM
same,GI50,[56],14 µM
same,TGI,[56],58.6 µM
same,GI50,[57],13.5 µM
same,TGI,[57],38.2 µM
same,GI50,[58],7.28 µM
same,TGI,[58],27.8 µM
same,GI50,[59],3.87 µM
same,TGI,[59],63.5 µM
